Experimental data taken from patent US20030068663A1, “Method and kit for measuring skin inflammation or irritation” (priority 2001, published 2003).
Several values for one entry are separate records, joined by “and”; a condition that tells them apart may be missing. Identical values can stand only once.

Key:
[1] = test system: PGE2 expressed on the skin surface; assay: PGE2 on skin surface 24 h after 4 h Hill Top chamber exposure, Sebutape collection, immunoassay; type: in vivo, human; settings: for Normalized levels of PGE2, Average: average of 10 panelists; for Normalized levels of PGE2: individual panelists 1-10
Method: Assay Designs, Inc. PGE2 Enzyme Immunoassay:
(§1) 1. Baseline (corresponding to an untreated control) levels of PGE2 contained in secretions present on the skin surface were measured along the lower volar forearms of test panelists by placing a mild adhesive-coated microporous plastic film, Sebutape® (Cuderm Corporation, Dallas, Tex.), on the skin with the adhesive side down, making direct contact with the skin. The Sebutape® was removed from the skin after 1 minute and then placed in a vial containing 500 μL saline. This Sebutape® collection process was repeated three more times with a 1-minute contact time for each Sebutape®. The collected samples were stored at −70 ° C. until analysis (described below).
(§2) 2. Hill Top chambers® (Hill Top Research, Cincinnati, Ohio) containing 400 μL of the test fluid (deionized or tap water) were applied to the lower volar forearms of the test panelists. After 4 hours of exposure, the Hill Top chambers® were removed and the test sites were rinsed with tap water and patted dry.
(§3) 3. Twenty four hours after the Hill Top chambers® were removed and the arm was rinsed and patted dry, skin secretions containing PGE2 expressed on the skin surface were collected using the Sebutape absorption method described previously in Step #1 above.
The collected Sebutape® samples were analyzed using the following methods. After thawing, the samples were sonicated for 15 minutes and vortexed vigorously. The solutions, containing extracted proteins and eicosanoids, were analyzed for levels of PGE2 via immunoassay (Assay Designs High Sensitivity PGE2 Enzyme Immunoassay #93001) and levels of total protein using the bicinchoninic acid (BCA) protein assay (Kit #23225, Pierce Chemical Company, Rockford, Ill.).
Four Sebutape® samples were taken from each test site. The measured levels of PGE2 (in pg/mL) were normalized against the total amount of protein (in μg/mL) extracted from each Sebutape® strip. The four normalized values were then averaged to determine the levels of PGE2 (in pg/μg) expressed for each test site. To account for person-to-person variability, PGE2 levels, for each panelist were further normalized relative to the levels of PGE2 measured for the untreated control.
The method of Example 1 was extended to measure the level of inflammation or irritation elicited by a dilute solution (8% w/w in deionized water) of a mild facial cleanser (Neutrogena Fresh Foaming Cleanser, Neutrogena Corporation, Los Angeles, California) compared to that of deionized water.

[2] = test system: IL-1α expressed on the skin; assay: IL-1α on skin surface after Hill Top chamber exposure to SLS solutions, Sebutape collection, ELISA; type: in vivo, human
Method: Endogen, Inc. Interleukin-1α ELISA
as §1, §2, §3
The level of irritation caused by dilute solutions of SLS as a function of SLS concentration was assessed using the method described in Example 1, with the exception that the level of Interleukin-1α(IL-1α) was used to assess the degree of irritation, rather than PGE2. The levels of IL-1α were measured via immunoassay (Human IL-1αKit #EH2-IL1a, Endogen, Inc., Woburn. Mass.). As with PGE2, the measured levels of IL-1α(in pg/mL) were normalized against the total amount of protein (in μg/mL) extracted from each Sebutape® strip. To account for person-to-person variability, IL-1α levels for each treatment site were further normalized using the baseline levels of IL-1α measured for the untreated control.

SMILES	Normalized levels of PGE2, Average ([1]; Example 3, cleanser as 8% w/w in deionized water)	Normalized levels of PGE2 ([1]; Example 3, cleanser as 8% w/w in deionized water, 4 h chamber)	Normalized levels of PGE2, Average ([1]; 4 h chamber on volar forearm, collected 24 h later)	Normalized levels of PGE2 ([1]; 400 μL fluid, 4 h chamber on volar forearm, collected 24 h later, normalized to protein and untreated control)	Levels of IL-1α ([2]; 5 w/w % SLS in deionized water)	Levels of IL-1α ([2]; 10 w/w % SLS in deionized water)	Levels of IL-1α ([2]; 20 w/w % SLS in deionized water)
O [Deionized Water]	1.53 dimensionless units	1.49 dimensionless units and 2.12 dimensionless units and 1.25 dimensionless units and 1.60 dimensionless units and 1.77 dimensionless units and 1.45 dimensionless units and 1.98 dimensionless units and 1.48 dimensionless units and 1.30 dimensionless units and 0.83 dimensionless units	0.86 dimensionless units	0.92 dimensionless units and 0.84 dimensionless units and 0.93 dimensionless units and 1.71 dimensionless units and 1.01 dimensionless units and 0.94 dimensionless units and 0.40 dimensionless units and 0.56 dimensionless units and 0.62 dimensionless units and 0.69 dimensionless units	–	–	–
CCCCCCCCCCCCOS(=O)(=O)[O-].[Na+] [SLS, sodium lauryl sulfate]	–	–	–	–	2.83 dimensionless units	2.71 dimensionless units	1.00 dimensionless units
